Measurements reported in BindingDB's records for doi:10.1021/bi401354d (Pfizer, 2013).
pKi: −log10 of the molar value.

Target: T1, Myeloperoxidase (Homo sapiens, UniProt P05164)
T1 sequence (P05164 whole entry): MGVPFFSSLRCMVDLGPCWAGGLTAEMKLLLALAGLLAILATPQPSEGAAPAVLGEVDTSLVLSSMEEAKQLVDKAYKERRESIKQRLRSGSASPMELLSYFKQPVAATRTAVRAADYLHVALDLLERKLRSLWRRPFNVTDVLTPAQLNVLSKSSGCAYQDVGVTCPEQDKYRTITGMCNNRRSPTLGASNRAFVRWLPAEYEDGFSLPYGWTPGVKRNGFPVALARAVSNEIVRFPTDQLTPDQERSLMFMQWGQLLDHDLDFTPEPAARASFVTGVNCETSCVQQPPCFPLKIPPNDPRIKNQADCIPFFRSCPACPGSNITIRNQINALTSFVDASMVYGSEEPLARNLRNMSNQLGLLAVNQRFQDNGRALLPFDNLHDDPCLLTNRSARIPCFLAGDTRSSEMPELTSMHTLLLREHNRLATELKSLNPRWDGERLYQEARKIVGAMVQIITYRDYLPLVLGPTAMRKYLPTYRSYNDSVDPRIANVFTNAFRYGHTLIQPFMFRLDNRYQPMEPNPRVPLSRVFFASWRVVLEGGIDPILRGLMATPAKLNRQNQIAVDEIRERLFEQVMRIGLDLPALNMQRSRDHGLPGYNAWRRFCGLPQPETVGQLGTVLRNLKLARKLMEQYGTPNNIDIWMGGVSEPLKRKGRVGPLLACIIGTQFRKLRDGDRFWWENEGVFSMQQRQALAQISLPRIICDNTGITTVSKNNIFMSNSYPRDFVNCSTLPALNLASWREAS
Test: MPO Activity Assay
Conditions: pH 7.4
Protocol: Assay mixtures (100 µL) contained 50 mM NaPi (pH 7.4), 150 mM NaCl, 1 mM DTPA, 2% DMSO, the indicated concentrations of H2O2, and Amplex Red. The reactions were initiated by the addition of 100 pM MPO. The fluorescent changes were measured at 530 (excitation) and 580 nm (emission).

| pKi | SMILES |
| --- | --- |
| 6.38 | CCOC(C)Cn1c(=S)[nH]c(=O)c2[nH]cnc21 (stereo not drawn) [3‐(2‐ethoxypropyl)‐2‐sulfanylidene‐1,9‐ dihydropurin‐6‐one (A)] |
| 6.26 | CCO[C@H](C)Cn1c(=S)[nH]c(=O)c2[nH]cnc21 [3‐[(2R)‐2‐ethoxypropyl]‐2‐sulfanylidene‐1,9‐ dihydropurin‐6‐one (C)] |
| 6.37 | CCO[C@@H](C)Cn1c(=S)[nH]c(=O)c2[nH]cnc21 [3‐[(2S)‐2‐ethoxypropyl]‐2‐sulfanylidene‐1,9‐ dihydropurin‐6‐one (D)] |
